target: T1, Receptor-type tyrosine-protein kinase FLT3 (Homo sapiens, UniProt P36888); assay: not given; settings: not given
T1 sequence (P36888 whole entry): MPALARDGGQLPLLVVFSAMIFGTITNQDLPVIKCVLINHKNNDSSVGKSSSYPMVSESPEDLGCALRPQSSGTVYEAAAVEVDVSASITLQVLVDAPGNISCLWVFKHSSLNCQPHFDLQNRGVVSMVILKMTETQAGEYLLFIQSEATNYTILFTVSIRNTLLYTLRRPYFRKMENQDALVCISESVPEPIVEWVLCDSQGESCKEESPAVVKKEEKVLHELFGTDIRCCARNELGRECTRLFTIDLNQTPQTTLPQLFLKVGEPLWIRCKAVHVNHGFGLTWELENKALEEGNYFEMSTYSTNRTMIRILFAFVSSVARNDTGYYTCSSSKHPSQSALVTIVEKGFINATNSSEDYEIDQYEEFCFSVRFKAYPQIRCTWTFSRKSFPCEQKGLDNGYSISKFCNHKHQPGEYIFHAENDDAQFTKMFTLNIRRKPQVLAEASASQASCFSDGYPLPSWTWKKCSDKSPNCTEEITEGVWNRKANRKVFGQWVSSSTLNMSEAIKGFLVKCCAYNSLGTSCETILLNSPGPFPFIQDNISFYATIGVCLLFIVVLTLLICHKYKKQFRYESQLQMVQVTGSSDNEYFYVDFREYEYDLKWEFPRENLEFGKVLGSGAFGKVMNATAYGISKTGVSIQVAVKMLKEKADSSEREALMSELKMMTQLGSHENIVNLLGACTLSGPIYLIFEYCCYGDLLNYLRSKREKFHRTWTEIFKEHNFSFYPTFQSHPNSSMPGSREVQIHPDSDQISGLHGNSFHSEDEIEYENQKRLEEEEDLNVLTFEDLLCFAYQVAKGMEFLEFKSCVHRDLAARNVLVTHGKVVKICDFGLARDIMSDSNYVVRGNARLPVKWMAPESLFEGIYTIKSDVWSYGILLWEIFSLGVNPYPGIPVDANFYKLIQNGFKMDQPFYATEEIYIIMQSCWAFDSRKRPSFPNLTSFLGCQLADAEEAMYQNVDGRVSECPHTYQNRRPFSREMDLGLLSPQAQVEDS

| Structure (SMILES) | IC50 [nM] |
| --- | --- |
| CN1CCC[C@@H](Nc2ccn3ncc(C(=O)Nc4ccc(N5CCOCC5)cc4C(F)(F)F)c3n2)C1 | 264 |
| O=C(Nc1ccc(N2CCOCC2)cc1C(F)(F)F)c1cnn2ccc(N[C@@H]3CCCCNC3)nc12 | 0.8 |
| COc1cc(N2CCCC2)ccc1NC(=O)c1cnn2ccc(N[C@@H]3CCCNC3)nc12 | 7.1 |
| COc1cc(N2CCN(C(C)=O)CC2)ccc1NC(=O)c1cnn2ccc(N[C@@H]3CCCNC3)nc12 | 1.4 |
| COc1cc(N2CCC(N3CCOCC3)CC2)ccc1NC(=O)c1cnn2ccc(N[C@@H]3CCCNC3)nc12 | 2.9 |
| O=C(Nc1ccc(N2CCOCC2)cc1C(F)(F)F)c1cnn2ccc(N[C@@H]3CCNC3)nc12 | 5.5 |
| COc1cc(N(C)CCN(C)C)ccc1NC(=O)c1cnn2ccc(N[C@@H]3CCCNC3)nc12 | 3.5 |
| COc1cc(N2CCNCC2)ccc1NC(=O)c1cnn2ccc(N3CCC[C@@H](N)C3)nc12 | 3.8 |
| COc1ccccc1NC(=O)c1cnn2ccc(N[C@@H]3CCCNC3)nc12 | 38.2 |
| COc1cc(N2CCOCC2)ccc1NC(=O)c1cnn2ccc(N3CCC[C@@H](N)C3)nc12 | 3.5 |

More lines, now with the values ahead:

| IC50 [nM] | Structure (SMILES) |
| --- | --- |
| 25.1 | O=C(Nc1ccc(N2CCOCC2)cc1F)c1cnn2ccc(N[C@@H]3CCCNC3)nc12 |
| 32.9 | CC(C)Oc1cc(N2CCOCC2)ccc1NC(=O)c1cnn2ccc(N[C@@H]3CCCNC3)nc12 |
| 37.7 | O=C(Nc1ccc(N2CCOCC2)cc1)c1cnn2ccc(N[C@@H]3CCCNC3)nc12 |
| 2.7 | COc1cc(N2CCOCC2)ccc1NC(=O)c1cnn2ccc(N[C@@H]3CCCNC3)nc12 |
| 2.6 | N#Cc1cc(N2CCOCC2)ccc1NC(=O)c1cnn2ccc(N[C@@H]3CCCNC3)nc12 |

test system: MV4-11; assay: cells; settings: Homo sapiens, MV4-11, 72 h
Description: Antiproliferative activity against human MV4-11 cells assessed as reduction in cell viability incubated for 72 hrs by CCK8 assay

| Structure (SMILES) | IC50 [nM] |
| --- | --- |
| CN1CCC[C@@H](Nc2ccn3ncc(C(=O)Nc4ccc(N5CCOCC5)cc4C(F)(F)F)c3n2)C1 | 23.4 |
| O=C(Nc1ccc(N2CCOCC2)cc1C(F)(F)F)c1cnn2ccc(N[C@@H]3CCCCNC3)nc12 | < 0.32 |
| COc1cc(N2CCCC2)ccc1NC(=O)c1cnn2ccc(N[C@@H]3CCCNC3)nc12 | 11.7 |
| COc1cc(N2CCN(C(C)=O)CC2)ccc1NC(=O)c1cnn2ccc(N[C@@H]3CCCNC3)nc12 | 7.66 |
| COc1cc(N2CCC(N3CCOCC3)CC2)ccc1NC(=O)c1cnn2ccc(N[C@@H]3CCCNC3)nc12 | 6.3 |
| O=C(Nc1ccc(N2CCOCC2)cc1C(F)(F)F)c1cnn2ccc(N[C@@H]3CCNC3)nc12 | 8 |
| COc1cc(N(C)CCN(C)C)ccc1NC(=O)c1cnn2ccc(N[C@@H]3CCCNC3)nc12 | 10 |
| COc1cc(N2CCNCC2)ccc1NC(=O)c1cnn2ccc(N3CCC[C@@H](N)C3)nc12 | 46 |
| COc1ccccc1NC(=O)c1cnn2ccc(N[C@@H]3CCCNC3)nc12 | 5.3 |
| COc1cc(N2CCOCC2)ccc1NC(=O)c1cnn2ccc(N3CCC[C@@H](N)C3)nc12 | 11.2 |

Next, values leading:

| IC50 [nM] | Structure (SMILES) |
| --- | --- |
| 9.8 | O=C(Nc1ccc(N2CCOCC2)cc1F)c1cnn2ccc(N[C@@H]3CCCNC3)nc12 |
| 34.8 | CC(C)Oc1cc(N2CCOCC2)ccc1NC(=O)c1cnn2ccc(N[C@@H]3CCCNC3)nc12 |
| 23.5 | O=C(Nc1ccc(N2CCOCC2)cc1)c1cnn2ccc(N[C@@H]3CCCNC3)nc12 |
| 1 | COc1cc(N2CCOCC2)ccc1NC(=O)c1cnn2ccc(N[C@@H]3CCCNC3)nc12 |
| 0.6 | N#Cc1cc(N2CCOCC2)ccc1NC(=O)c1cnn2ccc(N[C@@H]3CCCNC3)nc12 |

target: Receptor-type tyrosine-protein kinase FLT3 (Homo sapiens, UniProt P36888, ITD); assay: not given; settings: not given

| Structure (SMILES) | IC50 [nM] |
| --- | --- |
| CN1CCC[C@@H](Nc2ccn3ncc(C(=O)Nc4ccc(N5CCOCC5)cc4C(F)(F)F)c3n2)C1 | 181 |
| O=C(Nc1ccc(N2CCOCC2)cc1C(F)(F)F)c1cnn2ccc(N[C@@H]3CCCCNC3)nc12 | 0.5 |
| COc1cc(N2CCCC2)ccc1NC(=O)c1cnn2ccc(N[C@@H]3CCCNC3)nc12 | 83.1 |
| COc1cc(N2CCN(C(C)=O)CC2)ccc1NC(=O)c1cnn2ccc(N[C@@H]3CCCNC3)nc12 | 1.2 |
| COc1cc(N2CCC(N3CCOCC3)CC2)ccc1NC(=O)c1cnn2ccc(N[C@@H]3CCCNC3)nc12 | 18 |
| O=C(Nc1ccc(N2CCOCC2)cc1C(F)(F)F)c1cnn2ccc(N[C@@H]3CCNC3)nc12 | 96.7 |
| COc1cc(N(C)CCN(C)C)ccc1NC(=O)c1cnn2ccc(N[C@@H]3CCCNC3)nc12 | 37.5 |
| COc1cc(N2CCNCC2)ccc1NC(=O)c1cnn2ccc(N3CCC[C@@H](N)C3)nc12 | 1.9 |
| COc1ccccc1NC(=O)c1cnn2ccc(N[C@@H]3CCCNC3)nc12 | 144 |
| COc1cc(N2CCOCC2)ccc1NC(=O)c1cnn2ccc(N3CCC[C@@H](N)C3)nc12 | 1.3 |

Results, then the compound that gave them:

| IC50 [nM] | Structure (SMILES) |
| --- | --- |
| 110 | O=C(Nc1ccc(N2CCOCC2)cc1F)c1cnn2ccc(N[C@@H]3CCCNC3)nc12 |
| 197 | CC(C)Oc1cc(N2CCOCC2)ccc1NC(=O)c1cnn2ccc(N[C@@H]3CCCNC3)nc12 |
| 21.6 | O=C(Nc1ccc(N2CCOCC2)cc1)c1cnn2ccc(N[C@@H]3CCCNC3)nc12 |
| 3.1 | COc1cc(N2CCOCC2)ccc1NC(=O)c1cnn2ccc(N[C@@H]3CCCNC3)nc12 |
| 2 | N#Cc1cc(N2CCOCC2)ccc1NC(=O)c1cnn2ccc(N[C@@H]3CCCNC3)nc12 |

test system: MOLM-13; assay: cells; settings: Homo sapiens, MOLM-13, 72 h
Description: Antiproliferative activity against human MOLM-13 cells assessed as reduction in cell viability incubated for 72 hrs by CCK8 assay

| Structure (SMILES) | IC50 [nM] |
| --- | --- |
| CN1CCC[C@@H](Nc2ccn3ncc(C(=O)Nc4ccc(N5CCOCC5)cc4C(F)(F)F)c3n2)C1 | 262 |
| O=C(Nc1ccc(N2CCOCC2)cc1C(F)(F)F)c1cnn2ccc(N[C@@H]3CCCCNC3)nc12 | 1.4 |
| COc1cc(N2CCCC2)ccc1NC(=O)c1cnn2ccc(N[C@@H]3CCCNC3)nc12 | 19.5 |
| COc1cc(N2CCN(C(C)=O)CC2)ccc1NC(=O)c1cnn2ccc(N[C@@H]3CCCNC3)nc12 | 17.4 |
| COc1cc(N2CCC(N3CCOCC3)CC2)ccc1NC(=O)c1cnn2ccc(N[C@@H]3CCCNC3)nc12 | 10.3 |
| O=C(Nc1ccc(N2CCOCC2)cc1C(F)(F)F)c1cnn2ccc(N[C@@H]3CCNC3)nc12 | 16.3 |
| COc1cc(N(C)CCN(C)C)ccc1NC(=O)c1cnn2ccc(N[C@@H]3CCCNC3)nc12 | 23.5 |
| COc1cc(N2CCNCC2)ccc1NC(=O)c1cnn2ccc(N3CCC[C@@H](N)C3)nc12 | 249 |
| COc1ccccc1NC(=O)c1cnn2ccc(N[C@@H]3CCCNC3)nc12 | 19.4 |
| COc1cc(N2CCOCC2)ccc1NC(=O)c1cnn2ccc(N3CCC[C@@H](N)C3)nc12 | 28.3 |

The remaining lines, values ahead:

| IC50 [nM] | Structure (SMILES) |
| --- | --- |
| 16.5 | O=C(Nc1ccc(N2CCOCC2)cc1F)c1cnn2ccc(N[C@@H]3CCCNC3)nc12 |
| 35.9 | CC(C)Oc1cc(N2CCOCC2)ccc1NC(=O)c1cnn2ccc(N[C@@H]3CCCNC3)nc12 |
| 37.1 | O=C(Nc1ccc(N2CCOCC2)cc1)c1cnn2ccc(N[C@@H]3CCCNC3)nc12 |
| 10.3 | COc1cc(N2CCOCC2)ccc1NC(=O)c1cnn2ccc(N[C@@H]3CCCNC3)nc12 |
| 3.7 | N#Cc1cc(N2CCOCC2)ccc1NC(=O)c1cnn2ccc(N[C@@H]3CCCNC3)nc12 |

Source: ChEMBL document CHEMBL5053519, “Discovery and structure - activity relationship exploration of pyrazolo[1,5-a]pyrimidine derivatives as potent FLT3-ITD inhibitors” (Bioorg Med Chem, 2021)
